From patent US7666890B2, “Synthesis and herbicidal activity of 1- (2-substituted benzo[d]thiazol-5-yl)-1H-1,2,4-triazol-5(4H)-one derivatives” (Huazhong Normal University, priority 2007, dated 2010)

Key:
Experiment in all cases: Test of herbicidal activities (greenhouse pot method)
Format in all cases: in vivo
Conditions in all cases: single dose 300 g ai./h, treated before/after germination, 15 days later, greenhouse pot
[1] = system: Echinochloa crusgalli
In short: (§1)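 Weeds were sown in soil-filled pots at 15–30 °C and treated once by spray tower at 300 g ai./h, either before emergence or post-emergence at the 2-leaf stage, in three replicates with an untreated control. Symptoms were scored 15 days later into five classes from A (≥90%) to E (<50%).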

[2] = system: Brassica juncea
In short: as §1

[3] = system: Chenopodium album
In short: as §1

[4] = system: Setaria viridis
In short: as §1

[5] = system: Amaranthus retroflexus
In short: as §1

[6] = system: Digiatria sanguinalis
In short: as §1

SMILES | Herbicidal activity Echinochloa crusgalli (inhibition level) [1] | Herbicidal activity Brassica juncea (inhibition level) [2] | Herbicidal activity Chenopodium album (inhibition level) [3] | Herbicidal activity Setaria viridis (inhibition level) [4] | Herbicidal activity Amaranthus retroflexus (inhibition level) [5] | Herbicidal activity Digiatria sanguinalis (inhibition level) [6]
CCCCCCS(=O)(=O)c1nc2cc(-n3nc(C)n(C(F)F)c3=O)c(F)cc2s1 [Compound 55] | E (E < 50%) | C (60 ≦ C < 80%) | A (90 ≦ A ≦ 100%) | B (80 ≦ B < 90%) | C (60 ≦ C < 80%) | B (80 ≦ B < 90%)
Cc1ccc([N+](=O)[O-])c(CS(=O)(=O)c2nc3cc(-n4nc(C)n(C(F)F)c4=O)c(F)cc3s2)c1 [Compound 46] | D (50 ≦ D < 60%) | E (E < 50%) | C (60 ≦ C < 80%) | B (80 ≦ B < 90%) | A (90 ≦ A ≦ 100%) | B (80 ≦ B < 90%)
Cc1nn(-c2cc3nc(SCc4ccccc4)sc3cc2Cl)c(=O)n1C(F)F [Compound 2] | C (60 ≦ C < 80%) | B (80 ≦ B < 90%) | E (E < 50%) | B (80 ≦ B < 90%) | A (90 ≦ A ≦ 100%) | C (60 ≦ C < 80%)
Cc1nn(-c2cc3nc(S(=O)(=O)Cc4cccc(Cl)c4)sc3cc2F)c(=O)n1C(F)F [Compound 53] | C (60 ≦ C < 80%) | A (90 ≦ A ≦ 100%) | B (80 ≦ B < 90%) | D (50 ≦ D < 60%) | B (80 ≦ B < 90%) | B (80 ≦ B < 90%)
CCOC(=O)C(C)Sc1nc2cc(-n3nc(C)n(C(F)F)c3=O)c(Cl)cc2s1 (stereo not drawn) [Compound 95] | A (90 ≦ A ≦ 100%) | D (50 ≦ D < 60%) | B (80 ≦ B < 90%) | A (90 ≦ A ≦ 100%) | A (90 ≦ A ≦ 100%) | A (90 ≦ A ≦ 100%)
Cc1nn(-c2cc3nc(SCc4ccc(F)cc4F)sc3cc2F)c(=O)n1C(F)F [Compound 12] | E (E < 50%) | C (60 ≦ C < 80%) | E (E < 50%) | B (80 ≦ B < 90%) | A (90 ≦ A ≦ 100%) | B (80 ≦ B < 90%)
Cc1nn(-c2cc3nc(SCc4ccc(Br)cc4)sc3cc2Br)c(=O)n1C(F)F [Compound 26] | D (50 ≦ D < 60%) | B (80 ≦ B < 90%) | A (90 ≦ A ≦ 100%) | C (60 ≦ C < 80%) | B (80 ≦ B < 90%) | C (60 ≦ C < 80%)
C=CCS(=O)(=O)c1nc2cc(-n3nc(C)n(C(F)F)c3=O)c(F)cc2s1 [Compound 66] | A (90 ≦ A ≦ 100%) | B (80 ≦ B < 90%) | B (80 ≦ B < 90%) | A (90 ≦ A ≦ 100%) | B (80 ≦ B < 90%) | B (80 ≦ B < 90%)
CCCCCC[S+]([O-])c1nc2cc(-n3nc(C)n(C(F)F)c3=O)c(F)cc2s1 (stereo not drawn) [Compound 112] | B (80 ≦ B < 90%) | C (60 ≦ C < 80%) | B (80 ≦ B < 90%) | B (80 ≦ B < 90%) | B (80 ≦ B < 90%) | A (90 ≦ A ≦ 100%)
CCCS(=O)(=O)c1nc2cc(-n3nc(C)n(C(F)F)c3=O)c(Cl)cc2s1 [Compound 72] | A (90 ≦ A ≦ 100%) | B (80 ≦ B < 90%) | B (80 ≦ B < 90%) | C (60 ≦ C < 80%) | A (90 ≦ A ≦ 100%) | B (80 ≦ B < 90%)
CC[S+]([O-])c1nc2cc(-n3nc(C)n(C(F)F)c3=O)c(Cl)cc2s1 (stereo not drawn) [Compound 115] | C (60 ≦ C < 80%) | A (90 ≦ A ≦ 100%) | D (50 ≦ D < 60%) | B (80 ≦ B < 90%) | B (80 ≦ B < 90%) | B (80 ≦ B < 90%)
CCOC(=O)CSc1nc2cc(-n3nc(C)n(C(F)F)c3=O)c(Br)cc2s1 [Compound 82] | A (90 ≦ A ≦ 100%) | B (80 ≦ B < 90%) | C (60 ≦ C < 80%) | A (90 ≦ A ≦ 100%) | A (90 ≦ A ≦ 100%) | A (90 ≦ A ≦ 100%)
C=CCSc1nc2cc(-n3nc(C(F)(F)F)n(C(F)F)c3=O)c(Br)cc2s1 [Compound 128] | A (90 ≦ A ≦ 100%) | A (90 ≦ A ≦ 100%) | B (80 ≦ B < 90%) | D (50 ≦ D < 60%) | A (90 ≦ A ≦ 100%) | C (60 ≦ C < 80%)
Cc1nn(-c2cc3nc(S(=O)(=O)Cc4ccc(Cl)cc4)sc3cc2Cl)c(=O)n1C(F)F [Compound 41] | D (50 ≦ D < 60%) | C (60 ≦ C < 80%) | D (50 ≦ D < 60%) | C (60 ≦ C < 80%) | C (60 ≦ C < 80%) | B (80 ≦ B < 90%)
Cc1nn(-c2cc3nc(SCc4ccccc4Cl)sc3cc2F)c(=O)n1C(F)F [Compound 24] | C (60 ≦ C < 80%) | C (60 ≦ C < 80%) | B (80 ≦ B < 90%) | D (50 ≦ D < 60%) | A (90 ≦ A ≦ 100%) | B (80 ≦ B < 90%)
Cc1nn(-c2cc3nc(SCc4coc5ccccc5c4=O)sc3cc2Br)c(=O)n1C(F)F [Compound 28] | B (80 ≦ B < 90%) | A (90 ≦ A ≦ 100%) | C (60 ≦ C < 80%) | D (50 ≦ D < 60%) | C (60 ≦ C < 80%) | B (80 ≦ B < 90%)
CCCC[S+]([O-])c1nc2cc(-n3nc(C)n(C(F)F)c3=O)c(F)cc2s1 (stereo not drawn) [Compound 120] | D (50 ≦ D < 60%) | A (90 ≦ A ≦ 100%) | B (80 ≦ B < 90%) | B (80 ≦ B < 90%) | C (60 ≦ C < 80%) | B (80 ≦ B < 90%)
